Cc1ccc2cc(C)ccc2c1
solubility (mole fraction) (in cyclohexane, 293.18 K): 0.03 | solubility (mole fraction) (in cyclohexane, 298.86 K): 0.0398 | solubility (mole fraction) (in cyclohexane, 305.57 K): 0.0513 | solubility (mole fraction) (in cyclohexane, 312.3 K): 0.0714 | solubility (mole fraction) (in cyclohexane, 318.76 K): 0.096 | solubility (mole fraction) (in cyclohexane, 323.07 K): 0.115 | solubility (mole fraction) (in cyclohexane, 325.79 K): 0.134 | solubility (mole fraction) (in cyclohexane, 333.08 K): 0.187 | solubility (mole fraction) (in cyclohexane, 339.97 K): 0.253 | solubility (mole fraction) (in ethyl acetate, 287.56 K): 0.0424 | solubility (mole fraction) (in ethyl acetate, 292.27 K): 0.0494 | solubility (mole fraction) (in ethyl acetate, 298.27 K): 0.0585 | solubility (mole fraction) (in ethyl acetate, 305.69 K): 0.0775 | solubility (mole fraction) (in ethyl acetate, 311.52 K): 0.0957 | solubility (mole fraction) (in ethyl acetate, 318.89 K): 0.123 | solubility (mole fraction) (in ethyl acetate, 325.2 K): 0.158 | solubility (mole fraction) (in ethyl acetate, 332.01 K): 0.2 | solubility (mole fraction) (in ethyl acetate, 338.58 K): 0.256 | solubility (mole fraction) (in isooctane, 288.36 K): 0.0234 | solubility (mole fraction) (in isooctane, 293.19 K): 0.0294 | solubility (mole fraction) (in isooctane, 298.62 K): 0.0344 | solubility (mole fraction) (in isooctane, 306.77 K): 0.0487 | solubility (mole fraction) (in isooctane, 315.41 K): 0.0725 | solubility (mole fraction) (in isooctane, 322.03 K): 0.0905 | solubility (mole fraction) (in isooctane, 327.1 K): 0.113 | solubility (mole fraction) (in isooctane, 334.57 K): 0.149 | solubility (mole fraction) (in isooctane, 341.2 K): 0.197 | solubility (mole fraction) (in isopropanol, 286.65 K): 0.0054 | solubility (mole fraction) (in isopropanol, 294.55 K): 0.0072 | solubility (mole fraction) (in isopropanol, 301.45 K): 0.0098 | solubility (mole fraction) (in isopropanol, 309.65 K): 0.0136 | solubility (mole fraction) (in isopropanol, 315.75 K): 0.0174 | solubility (mole fraction) (in isopropanol, 323.22 K): 0.023 | solubility (mole fraction) (in isopropanol, 330.55 K): 0.0297 | solubility (mole fraction) (in isopropanol, 335.95 K): 0.0371 | solubility (mole fraction) (in isopropanol, 341.65 K): 0.0517 | solubility (mole fraction) (in n-heptane, 288.85 K): 0.0289 | solubility (mole fraction) (in n-heptane, 293.58 K): 0.0359 | solubility (mole fraction) (in n-heptane, 298.72 K): 0.0433 | solubility (mole fraction) (in n-heptane, 304.56 K): 0.0529 | solubility (mole fraction) (in n-heptane, 311.77 K): 0.0632 | solubility (mole fraction) (in n-heptane, 317.8 K): 0.0775 | solubility (mole fraction) (in n-heptane, 324.79 K): 0.0979 | solubility (mole fraction) (in n-heptane, 332.39 K): 0.132 | solubility (mole fraction) (in n-heptane, 339.42 K): 0.17 | solubility (mole fraction) (in n-propyl acetate, 286.65 K): 0.0485 | solubility (mole fraction) (in n-propyl acetate, 293.5 K): 0.0638 | solubility (mole fraction) (in n-propyl acetate, 300.85 K): 0.0815 | solubility (mole fraction) (in n-propyl acetate, 307.41 K): 0.103 | solubility (mole fraction) (in n-propyl acetate, 313.85 K): 0.127 | solubility (mole fraction) (in n-propyl acetate, 320.65 K): 0.159 | solubility (mole fraction) (in n-propyl acetate, 328.22 K): 0.206 | solubility (mole fraction) (in n-propyl acetate, 333.46 K): 0.245 | solubility (mole fraction) (in n-propyl acetate, 338.17 K): 0.289
